{
  "source": "patent US12558327B2",
  "about": "“Methods and compositions for treating sleep apnea” (The Brigham and Women's Hospital, Inc., priority 2019, dated 2026)",
  "key": {"OSA subjects": {"test_system": "OSA subjects", "assay": "Tiagabine in 14 OSA subjects", "type": "in vivo, human", "from_the_text": "As described herein, drugs that increase sleep depth (and slow wave sleep (SWS) in particular) such as tiagabine or gabapentin could help the resolution of OSA. […] The pharmacological increase in slow wave sleep (SWS) could be an ideal mechanism for raising the arousal threshold to treat OSA, particularly since SWS seems to be a “protective state” against OSA. […] The reason for improvement likely relates to changes in the non-anatomical factors that contribute to OSA during SWS such as reduced arousability, thereby enabling a higher activation of upper airway dilator muscles. […] Thus, as described herein, drugs such as gabapentin that cause 20-60% increase of SWS^20,21, are ideal candidates for the treatment of OSA in association with atomoxetine."}, "OSA patients [1]": {"test_system": "OSA patients", "assay": "Atomoxetine plus pimavanserin sleep study in 5 OSA patients (Example 4)", "type": "in vivo, human", "conditions": "inferred from combination effect and atomoxetine-alone reduction", "description": "We administered the recently-approved selective 5-HT2A inverse agonist pimavanserin 34 mg to block the EEG arousal response to CO2 in association with atomoxetine 80 mg and measured the effect of this combination on OSA severity, arousal threshold and collapsibility in 5 patients. These doses were chosen as they are the usual effective doses for attention-deficit disorder and delusion-hallucinations in patients with Parkinson's disease, respectively, based on prescribing information. Patients were also instrumented with an oronasal mask, and in 4/5 patients, esophageal catheter and genioglossus intramuscular electrodes. […] The effect on the arousal threshold is noteworthy, because pimavenserin was administered together with atomoxetine, a wake-promoting drug that, as described above, caused a reduction in arousal threshold by ˜18% compared to placebo in OSA patients in a previous trial. This means that pimavanserin could actually increase the respiratory arousal threshold by ˜50%."}, "OSA patients [2]": {"test_system": "OSA patients", "conditions": "for NREM (atomoxetine) and REM (oxybutynin) specific AHI / effect on ventilation during sleep / oxygen saturation / oxygen levels compared to placebo: each drug administered alone; for OSA severity (apnea hypopnea index, AHI): nine moderate-to-severe OSA patients, REM and NREM sleep", "quoted_text": "In a preliminary investigation, nine patients equipped with a pneumotachograph attached to an oronasal mask to measure ventilation and an esophageal catheter to estimate the arousal threshold, performed a sleep study on each of these 4 conditions: placebo, atomoxetine alone, oxybutynin alone and ato-oxy."}, "patients with mild OSA": {"test_system": "patients with mild OSA", "conditions": "15 patients with mild OSA; cited from earlier work"}, "patients with OSA": {"test_system": "patients with OSA", "conditions": "drug taken alone, cited from earlier work"}, "[3]": {"test_system": "subjects with and without OSA", "conditions": "cited from earlier work"}, "OSA patients [4]": {"test_system": "OSA patients", "conditions": "cited from earlier work"}, "[5]": {"conditions": "in vivo; cited from earlier work"}, "[6]": {"test_system": "OSA patients; normal controls", "conditions": "cited from earlier work"}, "OSA patients [7]": {"test_system": "OSA patients", "conditions": "cited from earlier work", "remark": "listed apart in the source"}, "OSA patients [8]": {"test_system": "OSA patients", "conditions": "zopiclone n=14 vs placebo n=16; 30 days; non-significant; cited from earlier work"}, "OSA patients [9]": {"test_system": "OSA patients", "conditions": "zopiclone 7.5 mg, 1 night, n=12; cited from earlier work"}, "[10]": {"conditions": "protriptyline 20 mg, 4 weeks, 5 obese men with severe OSA (Brownell)"}, "[11]": {"conditions": "seven patients with a low arousal threshold (Eckert)"}, "[12]": {"conditions": "zopiclone 7.5 mg, 21 healthy individuals and OSA patients"}},
  "note": "Several values for one entry are separate records, joined by “and”; a condition that tells them apart may be missing. Equal entries are not always repeated. Entries after “also recorded” stand apart in the source; their conditions may differ. Where two headings read alike, the source gives them in different places.",
  "data": [
    {"smiles": "Cc1ccsc1C(=CCCN1CCC[C@@H](C(=O)O)C1)c1sccc1C", "note": "[tiagabine]", "values": [
      {"measurement": "AHI or oxygen saturation during sleep", "setting": "OSA subjects", "value": "without worsening"},
      {"measurement": "increase in EEG slow wave activity", "setting": "OSA subjects", "value": 16, "unit": "%"}
    ]},
    {"smiles": "CC(C)COc1ccc(CNC(=O)N(Cc2ccc(F)cc2)C2CCN(C)CC2)cc1", "note": "[pimavanserin]", "values": [
      {"measurement": "increase of respiratory arousal threshold ascribed to pimavanserin", "setting": "OSA patients [1]", "value": "~50", "unit": "%"}
    ]},
    {"smiles": "CNCC[C@@H](Oc1ccccc1C)c1ccccc1", "note": "[atomoxetine]", "values": [
      {"measurement": "share of the improvement in ventilation during sleep accounted for", "setting": "OSA patients [2]; analysis of ventilatory parameters during all night", "value": "at least 70%"},
      {"measurement": "NREM (atomoxetine) and REM (oxybutynin) specific AHI", "setting": "OSA patients [2]", "value": "did not respectively improve"},
      {"measurement": "effect on ventilation during sleep", "setting": "OSA patients [2]", "value": "responsible for most of the ventilatory improvement"},
      {"measurement": "oxygen saturation / oxygen levels compared to placebo", "setting": "OSA patients [2]", "value": "improved oxygen saturation"},
      {"measurement": "reduction in arousal threshold vs placebo", "setting": "OSA patients [2]; nine OSA patients, atomoxetine p=0.03, combination p>0.7", "value": 18, "unit": "%"},
      {"measurement": "OSA severity (apnea hypopnea index, AHI)", "setting": "OSA patients [2]", "value": "did not improve OSA severity"},
      {"measurement": "OSA severity (apnea hypopnea index, AHI)", "setting": "OSA patients [2]; listed as Atomoxetine", "value": "did not systematically reduce OSA severity"},
      {"measurement": "AHI", "setting": "patients with mild OSA", "value": "did not improve"},
      {"measurement": "daytime sleepiness", "setting": "patients with mild OSA", "value": "significantly improve"},
      {"measurement": "success in reducing OSA severity / the AHI", "setting": "patients with OSA", "value": "modest success; also recorded: without success"}
    ]},
    {"smiles": "Cc1ccc(-c2nc3ccc(C)cn3c2CC(=O)N(C)C)cc1", "note": "[zolpidem]", "values": [
      {"measurement": "increase in arousal threshold compared to placebo", "setting": "[3]; 21 subjects with and without OSA, zolpidem 10 mg", "value": "~30% and 25%"},
      {"measurement": "increase in median genioglossus muscle responsiveness compared to placebo", "setting": "[3]; 21 subjects, p=0.03", "value": 3, "unit": "fold"},
      {"measurement": "genioglossus response to pharyngeal negative pressure compared to placebo", "setting": "[3]; zolpidem 10 mg, 21 individuals", "value": "increased"}
    ]},
    {"smiles": "CNCCCC1c2ccccc2C=Cc2ccccc21", "note": "[protriptyline]", "values": [
      {"measurement": "reduction in AHI from baseline", "setting": "OSA patients [4]; open label 4-week crossover trial, 9 patients (Hanzel)", "value": 42, "unit": "%"},
      {"measurement": "AHI during NREM sleep", "setting": "OSA patients [4]; [10]", "value": "no change"},
      {"measurement": "oxygen saturation and daytime sleepiness", "setting": "OSA patients [4]; [10]", "value": "improvements"},
      {"measurement": "NREM AHI as a group", "setting": "OSA patients [4]; protriptyline 20 mg, 14 days, 10 moderate-to-severe OSA patients (Whyte)", "value": "did not change"},
      {"measurement": "success in reducing OSA severity / the AHI", "setting": "patients with OSA; listed as Protriptyline", "value": "without success"},
      {"measurement": "success in reducing OSA severity / the AHI", "setting": "patients with OSA", "value": "modest success"}
    ]},
    {"smiles": "NCC1(CC(=O)O)CCCCC1", "note": "[gabapentin]", "values": [
      {"measurement": "increase of SWS (slow wave sleep)", "setting": "[5]", "value": "20-60%"}
    ]},
    {"smiles": "CNCCCN1c2ccccc2CCc2ccccc21", "note": "[desipramine]", "values": [
      {"measurement": "airway collapsibility compared to placebo", "setting": "[6]; 1 night, 14 OSA patients", "value": "less collapsible airway"},
      {"measurement": "effect on OSA severity as a group", "setting": "[6]; 1 night, 14 patients", "value": "not significant"},
      {"measurement": "genioglossus activity during sleep", "setting": "[6]; normal controls", "value": "increased genioglossus activity"},
      {"measurement": "upper airway collapsibility during sleep", "setting": "[6]; normal controls", "value": "reduced upper airway collapsibility"},
      {"measurement": "success in reducing OSA severity / the AHI", "setting": "patients with OSA", "value": "modest success; also recorded: without success"}
    ]},
    {"smiles": "CCN(CC)CC#CCOC(=O)C(O)(c1ccccc1)C1CCCCC1", "note": "(stereo not drawn) [oxybutynin]", "values": [
      {"measurement": "NREM (atomoxetine) and REM (oxybutynin) specific AHI", "setting": "OSA patients [2]", "value": "did not respectively improve"},
      {"measurement": "effect on ventilation during sleep", "setting": "OSA patients [2]", "value": "minor effect on ventilation"},
      {"measurement": "oxygen saturation / oxygen levels compared to placebo", "setting": "OSA patients [2]", "value": "did not improve oxygen levels"},
      {"measurement": "OSA severity (apnea hypopnea index, AHI)", "setting": "OSA patients [2]", "value": "did not systematically reduce OSA severity"}
    ]},
    {"smiles": "O=c1n(CCCN2CCN(c3cccc(Cl)c3)CC2)nc2ccccn12", "note": "[trazodone]", "values": [
      {"measurement": "AHI compared to placebo", "setting": "OSA patients [7]; [11]", "value": "did not affect"},
      {"measurement": "improvement of arousal threshold", "setting": "OSA patients [7]; [11]", "value": 30, "unit": "%"},
      {"measurement": "arousal threshold in response to hypercapnia", "setting": "OSA patients [7]; trazodone 100 mg before bedtime, eight OSA patients (Heinzer)", "value": "increased"},
      {"measurement": "reduction of AHI", "setting": "OSA patients [7]; trazodone 100 mg, 15 unselected OSA patients (Smales)", "value": 26, "unit": "%"}
    ]},
    {"smiles": "CN1CCN(C(=O)OC2c3nccnc3C(=O)N2c2ccc(Cl)cn2)CC1", "note": "(stereo not drawn) [zopiclone]", "values": [
      {"measurement": "change in AHI from baseline", "setting": "OSA patients [8]", "value": "−25", "unit": "%"},
      {"measurement": "change in AHI from placebo", "setting": "OSA patients [8]", "value": "−15", "unit": "%"},
      {"measurement": "AHI vs placebo", "setting": "[3]; [12]", "value": "did not change"},
      {"measurement": "arousal threshold vs placebo", "setting": "[3]; [12]", "value": "significantly increased"},
      {"measurement": "AHI compared to placebo", "setting": "OSA patients [9]", "value": "did not significantly change"},
      {"measurement": "increase in arousal threshold", "setting": "OSA patients [9]", "value": 20, "unit": "%"}
    ]}
  ]
}
